Laboratory results taken from PubChem BioAssay (NCI).
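96-well plates; 48 h exposure; 5 concentrations. Endpoints by linear interpolation between flanking doses. Not reached: highest tested concentration assigned. At the GI50, growth is halved. The concentration for full growth arrest is given as TGI.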

Key:
Test in all cases: growth of human tumour cells (NCI), 48 h
HCC-2998 colon = test system: HCC-2998 colon
HOP-62 NSCLC = test system: HOP-62 NSCLC
SNB-75 CNS = test system: SNB-75 CNS
T-47D breast = test system: T-47D breast
786-0 renal = test system: 786-0 renal
HCT-116 colon = test system: HCT-116 colon
LOX IMVI melanoma = test system: LOX IMVI melanoma
MALME-3M melanoma = test system: MALME-3M melanoma
SK-MEL-5 melanoma = test system: SK-MEL-5 melanoma
HL-60(TB) leukemia = test system: HL-60(TB) leukemia

In the case of `CN1CCC(CNc2cc(C3(C(=O)Nc4cc(C(=O)Nc5ccc(Cl)c(C(F)(F)F)c5)ccc4F)CC3)ncn2)CC1`, the GI50 (HCC-2998 colon) is reported as 2.39 µM, the TGI (HCC-2998 colon) is reported as 5.22 µM and the GI50 (HOP-62 NSCLC) is reported as 2 µM. It also gave a TGI (HOP-62 NSCLC) of 3.97 µM, a GI50 (SNB-75 CNS) of 0.955 µM and a TGI (SNB-75 CNS) of 2.86 µM. The GI50 (T-47D breast) was 4.14 µM and the TGI (T-47D breast) was 26.8 µM.
For `CCc1n[nH]c(=O)n1CCCCCCCCCCCCn1c(CC)n[nH]c1=O`, the TGI (786-0 renal) was over 100 µM, the TGI (HCC-2998 colon) was over 100 µM and the TGI (HCT-116 colon) was over 100 µM. For the same compound, the TGI (HOP-62 NSCLC) was over 100 µM, the TGI (LOX IMVI melanoma) was 99 µM and the TGI (MALME-3M melanoma) was 76 µM. The TGI (SK-MEL-5 melanoma) was 32.8 µM, the TGI (SNB-75 CNS) was 80.6 µM and the TGI (T-47D breast) was 82.9 µM.
With `CCn1nc(C)c2c1C(=O)NCC(=O)N2` the TGI (HCT-116 colon) was over 100 µM, the TGI (SK-MEL-5 melanoma) was over 100 µM and the TGI (SNB-75 CNS) was over 100 µM.
Work on `Cc1ccc(S(=O)(=O)NC(=O)Nc2nnc(S(N)(=O)=O)s2)cc1` yielded a TGI (786-0 renal) of over 100 µM, a TGI (HCC-2998 colon) of over 100 µM and a TGI (HCT-116 colon) of over 100 µM. For the same compound, the TGI (HL-60(TB) leukemia) was over 100 µM, the TGI (HOP-62 NSCLC) was over 100 µM and the TGI (LOX IMVI melanoma) was over 100 µM. For the same compound, the TGI (MALME-3M melanoma) was over 100 µM, the TGI (SK-MEL-5 melanoma) was over 100 µM and the TGI (SNB-75 CNS) was over 100 µM.
Compound `O=C(O)CC(Cc1ccccc1Cl)C(=O)O` (centres undefined) has a TGI (786-0 renal) of over 100 µM, a TGI (HCC-2998 colon) of over 100 µM and a TGI (HCT-116 colon) of over 100 µM. The TGI (HOP-62 NSCLC) was over 100 µM, the TGI (LOX IMVI melanoma) was over 100 µM and the TGI (MALME-3M melanoma) was over 100 µM. It also gave a TGI (SK-MEL-5 melanoma) of over 100 µM and a TGI (T-47D breast) of over 100 µM.
`CCO/C(=N/S(=O)(=O)C(F)(F)F)N(C(C)C)C(C)C` was tested, and the TGI (786-0 renal) was over 100 µM, the TGI (HCT-116 colon) was over 100 µM and the TGI (HL-60(TB) leukemia) was over 100 µM. For the same compound, the TGI (LOX IMVI melanoma) was over 100 µM, the TGI (MALME-3M melanoma) was over 100 µM and the TGI (SK-MEL-5 melanoma) was over 100 µM. It also gave a TGI (T-47D breast) of over 100 µM.
Compound `C=CCC1(C#N)C(=S)NC2=C(C(=O)CC(C)(C)C2)C1c1ccccc1` (centres undefined) has a TGI (786-0 renal) of over 100 µM, a TGI (HCT-116 colon) of over 100 µM and a TGI (HL-60(TB) leukemia) of over 100 µM. For the same compound, the TGI (LOX IMVI melanoma) was over 100 µM, the TGI (SK-MEL-5 melanoma) was over 100 µM and the TGI (SNB-75 CNS) was 74.8 µM. The TGI (T-47D breast) was over 100 µM.
Work on `O=c1[nH]cc(NCCCl)c(=O)[nH]1` yielded a TGI (786-0 renal) of over 100 µM, a TGI (HCC-2998 colon) of over 100 µM and a TGI (HCT-116 colon) of over 100 µM. For the same compound, the TGI (HOP-62 NSCLC) was over 100 µM, the TGI (LOX IMVI melanoma) was over 100 µM and the TGI (MALME-3M melanoma) was over 100 µM. For the same compound, the TGI (SK-MEL-5 melanoma) was over 100 µM, the TGI (SNB-75 CNS) was over 100 µM and the TGI (T-47D breast) was over 100 µM.
For `CNC(C)(C)Cc1ccc(Cl)cc1`, the TGI (786-0 renal) was over 100 µM, the TGI (HCC-2998 colon) was over 100 µM and the TGI (HCT-116 colon) was over 100 µM. For the same compound, the TGI (HOP-62 NSCLC) was over 100 µM, the TGI (LOX IMVI melanoma) was over 100 µM and the TGI (MALME-3M melanoma) was over 100 µM. The TGI (SK-MEL-5 melanoma) was over 100 µM and the TGI (SNB-75 CNS) was over 100 µM.
`O=C(Nc1ccccc1F)c1cc2ccc(O)cc2oc1=Nc1cccc(F)c1` showed a TGI (786-0 renal) of 30 µM, a TGI (HCC-2998 colon) of 33.8 µM and a TGI (HCT-116 colon) of 24.8 µM. For the same compound, the TGI (HL-60(TB) leukemia) was 27 µM, the TGI (HOP-62 NSCLC) was 38.6 µM and the TGI (LOX IMVI melanoma) was 22.9 µM. The TGI (MALME-3M melanoma) was 98.7 µM, the TGI (SK-MEL-5 melanoma) was 18 µM and the TGI (T-47D breast) was 39.3 µM.
Compound `Cc1cc(C)nc(NS(=O)(=O)c2ccc(NC(=O)c3c4ccccc4nc4ccccc34)cc2)n1` has a TGI (786-0 renal) of over 100 µM, a TGI (HCC-2998 colon) of over 100 µM and a TGI (HCT-116 colon) of over 100 µM. It also gave a TGI (HOP-62 NSCLC) of over 100 µM, a TGI (LOX IMVI melanoma) of over 100 µM and a TGI (MALME-3M melanoma) of over 100 µM. For the same compound, the TGI (SK-MEL-5 melanoma) was over 100 µM and the TGI (SNB-75 CNS) was over 100 µM.
`Cc1ccc2nc(SCC(=O)N=Nc3c(O)[nH]c4ccccc34)n(-c3ccccc3)c(=O)c2c1` showed a TGI (786-0 renal) of 29.5 µM, a TGI (HCC-2998 colon) of 28.6 µM and a TGI (HCT-116 colon) of 28.4 µM. For the same compound, the TGI (HL-60(TB) leukemia) was 62.2 µM, the TGI (HOP-62 NSCLC) was 24.6 µM and the TGI (LOX IMVI melanoma) was 29.8 µM. For the same compound, the TGI (MALME-3M melanoma) was 34.7 µM, the TGI (SK-MEL-5 melanoma) was 29.1 µM and the TGI (T-47D breast) was 34 µM.
